# Measured values: patent publication EP0486045A2, “S(+)-Phenyl-alkanoic acids and alpha-amino acid containing complexes” (MEDICE Chem.-Pharm. Fabrik Pütter GmbH & Co. KG, priority 1990, dated 1992)
# Where “and” joins values, the source holds several entries; their conditions need not be identical. Equal entries are not always repeated. Where two headings read alike, the source gives them in different places.
# Assays:
# [1] = physchem
# [2] = human, in vivo, po, 150 mg
# [3] = Pharmacokinetics of S-(+)-Ibuprofen-D-Lysinat capsules (200 mg S-(+)-Ibuprofen, oral) in 24 subjects
# [4] = Pharmacokinetic comparison after a single oral dose of 150 mg S-(+)-Ibuprofen, free acid tablet vs D-Lysinat (Tabelle 5); conditions: for Ae conj. I / Ae, free 1 / tlag: single oral dose 150 mg S-(+)-Ibuprofen, Mean ± SD
# [5] = test system: primärer Dysmenorrhör; assay: Pharmacodynamics: pain intensity on a visual analogue scale (0 - 10), self-rated; assay type: in vivo, Probandinnen
# Source text: In einer monozentrienden Studie wurde die Pharmakodynamik bei primärer Dysmenorrhör an 24 Probandinnen untersucht. Die Mittelwerte aller Probandinnen als Auswertung einer Schmerzintensitätsskala sind in Tabelle 4 sowie Fig. 4 graphisch dargestellt. Die Schmerzintensität wurde anhand der visuellen Analogskala (einer von 0 - 10 offenen Skala) von den Probandinnen im Rahmen einer Selbstbeurteilung angegeben.
# Wie aus Fig. 4 zu ersehen, betrug die mittlere Schmerzintensität zum Zeitpunkt Null 4,7, die analgetische Wirksamkeit setzte innerhalb von 5 Minuten ein und verminderte sich innerhalb der ersten 45 Minuten auf einen Wert von im Mittel 1,65. Die maximale analgetische Wirkung wurde nach 2 Stunden mit einem Wert von 0,36 erreicht. Anschließend stieg die Schmerzintensität bis auf einen Wert von 0,83 nach 6 Stunden wieder langsam an. Die Fig. 4 zeigt die Schmerzintensitätskurve der Probandinnen.
# [6] = Adverse drug effects, laboratory parameters and medical follow-up in the study; assay type: in vivo, Probandinnen; conditions: up to 3 x daily 200 mg on 3 days
# Source text: Unerwünschte Arzneimittelwirkungen traten bei keiner Teilnehmerin an der Studie auf.
# [7] = clinical; conditions: human, in vivo, po, 150 mg
smiles,measurement,setting,value
N=C(N)NCCC[C@H](N)C(=O)O [Arginin],pKa,[1],~12.5
CC(C)Cc1ccc([C@H](C)C(=O)O)cc1.NCCCC[C@@H](N)C(=O)O [S-(+)-Ibuprofen-D-Lysinat],Cmax,[2],"23,0 ± 5,2 µg/ml"
same,AUC (Trapez),"[3]; group A (n 6), mean x̄, capsule single dose, 720 min","69,55 mg/lx12h"
same,tmax,"[3]; mean of all subjects, 200 mg capsule oral","33 Minuten and 33,59 Minuten"
same,AUC,"[3]; mean of all subjects, trapezoidal rule, 200 mg capsule oral, 720 min","56,45 mg/1 x 12 h"
same,Verzögerungszeit (lag-Time) der Resorption,"[3]; mean, 200 mg capsule oral","2,33 Minuten"
same,Ae conj. I,[4],"9,3 ± 5,4"
same,"Ae, free 1",[4],"0,6 ± 0,5 % of dose"
same,tlag,[4],"0,1 ± 0,02 h"
same,mittlere Schmerzintensität,"[5]; Zeitpunkt Null (baseline), scale 0 - 10, mean of 24 subjects","4,7"
same,mittlere Schmerzintensität,"[5]; nach 2 Stunden (maximal analgesic effect), scale 0 - 10","0,36"
same,mittlere Schmerzintensität,"[5]; nach 6 Stunden, scale 0 - 10","0,83"
same,Einsetzen der analgetischen Wirksamkeit,[5]; onset of analgesia,≤ 5 Minuten
same,mittlere Schmerzintensität,"[5]; within the first 45 Minuten, scale 0 - 10","1,65"
same,unerwünschte Arzneimittelwirkungen,[6]; single or repeated intake,zu keinen unerwünschten Arzneimittelwirkungen geführt hat mit Ausnahme der bei einer Probandin aufgetretenen pseudoallergischen Reaktion
same,laborchemische Parameter und ärztliche Nachuntersuchung,[6],ohne pathologischen Befund
NCCCC[C@H](N)C(=O)O [Lysin],pKa,[1],10.5
"CC(C)Cc1ccc([C@H](C)C(=O)O)cc1 [S-(+)-Ibuprofen, freie Säure, S-(+)-Ibuprofen]",AUC,"[4]; human, in vivo, po, 150 mg",44500 ng·h/mL
same,tmax,"[4]; human, in vivo, po, 150 mg",2 h
same,Ae conj. I,[4],"8,0 ± 2,9"
same,"Ae, free 1",[4],"0,6 ± 0,2 % of dose"
same,tlag,[4],"0,5 ± 0,1 h"
same,Cmax,[7],10900 ng/mL
